Key:
urothelial cancer = conditions: 348 urothelial cancer patients; cited from earlier work
Renca kidney cancer = test: pSTAT1 flow cytometry of tumours after tretinoin; type: in vivo, mouse; conditions: tretinoin (FIG. 22C)
Description: (§1) For detection of phospho-STAT1, dissociated tumours were stained with surface antibodies, fixed with 1.5% formaldehyde for 10 minutes, then permeabilized with ice-cold methanol at 4° C. for 10 minutes. Cells were stained with a rabbit-anti-pSTAT1 antibody (Tyr701) -PE (Cell Signaling Technology) for 30 minutes at room temperature (RT).
To test whether retinoids induce the ICB response-associated phenotype characterised by increased NK cells, inflammatory markers and pSTAT1 positive leukocytes in the tumour, Renca kidney cancer-bearing mice were treated for […] with oral tretinoin (10 mg/kg) starting on day 12 and harvested tumours on day 15 for flow cytometry. In subsequent experiments AB1-HA mesothelioma or CT26 colorectal cancer tumour-bearing mice were treated with tretinoin for 3 days at 10 mg/kg i.p., starting on day 10 and harvested tumours on day 13 for flow cytometry and immunohistochemistry.

CT26 colorectal tumours = test: pSTAT1 immunohistochemistry of tumours after tretinoin; type: in vivo, mouse; conditions: tretinoin 10 mg/kg (FIG. 22A, B)
Description: For immunohistochemical staining of STAT1 and pSTAT1, slides of 4-μm thickness were cut from formalin-fixed, parafin-embedded (FFPE) tissue blocks. Subsequently, slides were deparafinized in two changes of xylene for about 5 min followed by rehydration in changes of 100%, 96%, 70% and 40% ethanol and distilled water. Next, for STAT1 staining, antigen retrieval using 10 mM citrate buffer (pH 6.0) was performed for about 10 min at 121° C. using a pressure cooker (the PT-module, Thermo scientific, labvision). For pSTAT1 staining, slides were sub-boiled in 1 M EDTA buffer (pH 8.0) for about 10 minutes in a microwave. Slides were rinsed in TBST and the endogenous peroxidase was blocked using 3% hydrogen peroxidase (Sigma) in distilled water. Sections were washed again in TBST and blocked with goat serum (Vectastain) diluted in PBS as per manufacturer's instructions. Primary antibody, STAT1 or pSTAT1 (Cell Signaling, dilution: 1/800 and 1/200 respectively), was incubated for 60 minutes at room temperature (RT). Sections were washed and secondary antibody, goat anti-Rb IgG-HRP (Santa Cruz), was incubated for about 30 minutes at RT, before washing again. Betazoid DAB chromogen (Biocare Medical) was prepared as per manufacturer's instructions. Chromogen was applied, sections were monitored for the development of a brown colour and the reaction was stopped with H2O. […]

[1] = tested on: AB1-HA mesothelioma tumours; test: Tretinoin combined with ICB in AB1-HA tumour-bearing mice, tumour growth; type: in vivo, mouse
Description: […] The administration of tretinoin to the mice started either 3 days before ICB or at the same time as the ICB (arm 6). Tretinoin was dosed at three dosages; 10 mg/kg (arm 3), 5 mg/kg (arm 4) or 1 mg/kg (arm 5) and was given for 9 days in total.

[2] = tested on: Renca kidney cancer tumours; test: Oral retinoids combined with ICB in Renca kidney cancer-bearing mice; type: in vivo, mouse; conditions: retinoid oral 6 days from day 9, ICB days 12, 14, 16 (FIG. 24)
Description: The following retinoids and dosages were employed: Bexarotene (Saphire Bioscience) was dosed at 100 mg/kg; tretinoin and isotretinoin (Sigma-Aldrich) were all dosed at 10 mg/kg.

[3] = tested on: AE17 mesothelioma tumours; test: Flow cytometry of AE17 tumours after intratumoural IFN alpha or poly(I:C) pretreatment; type: in vivo, mouse; conditions: intratumoural 3 days, vs PBS (FIG. 17)
Description: For flow cytometry, tumours were harvested and immediately submerged in cold PBS, cut into 1-2 mm pieces with a scalpel blade and dissociated using the GentleMACS system. Fc block (anti-CD16/CD32, BD) was used for 10 minutes on ice. UV Zombie live/dead (Biolegend) was used to discriminate live cells. Cells were permeabilized and fixed using FoxP3 fix/Perm buffer kit (Biolegend) before addition of antibodies for 20 minutes at RT. See Supplementary Table 2 for antibody details. Cells were kept in stabilizing fixative until acquisition. Data were acquired on a BD Fortessa flow cytometer and analyzed using FlowJo software (TreeStar).
as §1
To verify the potential of recombinant IFN alpha to induce the response-associated phenotype (i.e., to sensitise the tumour cellular microenvironment to ICB) similarly to Poly-I:C, AE17 mesothelioma tumour-bearing mice were pretreated with Poly-I:C or recombinant IFN alpha (: R&D systems) intratumourally for 3 days (or PBS control). […]

[4] = tested on: AE17 mesothelioma tumours; test: Poly(I:C) pretreatment followed by ICB with or without IFNAR blocking antibody, tumour growth; type: in vivo, mouse
Description: To test whether the mechanism underlying the priming effect of Poly-I:C was mediated through IFN alpha/beta induction (as discussed in Example 6), priming experiments were repeated while adding blocking antibodies against the IFN alpha/beta receptor (IFNAR). C57BL/6 AE17 mesothelioma tumour-bearing mice were treated with CPB on day 22 after tumour inoculation, with or without pretreatment of 3 days of 50 μg s.c. Poly-I:C in the tumour area (day 17-19), with or without blocking antibodies against IFNAR (e.g., […] monoclonal antibody MAR1-5A3 as sourced from BiXcell) (0.5 mg i.p., 3 times/week) starting at the same time.

melanoma = melanoma cohort n=33; cited from earlier work

atezolizumab: anti-PD-L1 antibody
best response: complete responders (CR), number of patients (urothelial cancer): 25 | best response: partial responders (PR), number of patients (urothelial cancer): 43 | best response: progressors (PD), number of patients (urothelial cancer): 167 | best response: stable disease (SD), number of patients (urothelial cancer): 63

CC1=C(/C=C/C(C)=C/C=C/C(C)=C/C(=O)O)C(C)(C)CCC1 [tretinoin, all-trans retinoic acid]
pSTAT1 positive leukocytes in tumours (flow cytometry) (Renca kidney cancer): increased pSTAT1 positive leukocytes in tumours, particularly in MHC class II positive cells | pSTAT1 immune cell infiltrates in tumours (immunohistochemistry) (CT26 colorectal tumours): increased patches of pSTAT1 immune cell infiltrates | efficacy of ICB, retinoid before ICB vs at same time as ICB ([1]; AB1-HA (FIG. 21)): markedly improved the efficacy of ICB compared to when the retinoid was administered at same time as ICB | efficacy of combination with anti-PD-L1 antibody alone as ICB ([1]; AB1-HA, tretinoin 10 mg/kg i.p. 9 days from day 6, anti-PD-L1 days 8, 10, 12 (FIG. 23)): more efficacious than use of the antibody alone | response of the tumours to ICB ([1]; AB1-HA, tretinoin 10, 5 or 1 mg/kg for 9 days starting 3 days before anti-CTLA4/anti-PD-L1 (FIG. 21)): improved the response of the tumours to ICB in a dose-dependent manner

C=C(c1ccc(C(=O)O)cc1)c1cc2c(cc1C)C(C)(C)CCC2(C)C [bexarotene]
percentage of complete regression after combination therapy with ICB, compared to ICB alone [2]: increased percentage of complete regression

olyinosinic:polycytidylic acid [poly(I:C)]
NK infiltration (NK cells of all leukocytes) [3]: increased NK cell numbers | STAT1 phosphorylation (pSTAT1 activation) [3]: pSTAT1 activation | beneficial effect of pretreatment under IFNAR blockade ([4]; cotreatment with IFNAR blocking antibodies (FIG. 16)): abrogated | tumour growth ([4]; poly(I:C) 3 days before ICB, vs ICB alone (FIG. 16)): clear delay in tumour growth compared to ICB alone

CC1=C(/C=C/C(C)=C/C=C/C(C)=C\C(=O)O)C(C)(C)CCC1 [isotretinoin, 13-cis-retinoic acid]
percentage of complete regression after combination therapy with ICB, compared to ICB alone [2]: increased percentage of complete regression

nivolumab: anti-PD1 antibody
non-responsive (PD), number of patients (melanoma): 23 | responsive (CR and PR), number of patients (melanoma): 10
